This note sets out measurements from US12285407B2, “Bis-indolylmethane derivatives and uses thereof” (The University of The West Indies, priority 2018, dated 2025).

The subject of one assay is Escherichia coli O157:H7. Description: Rescue concentrations of SP-BIM that reactivate antibiotic. The following applies: for MIC: Escherichia coli. The format is cell-based.
The next assay relates to Candida albicans. Put plainly: Checkerboard synergy (FICI) of antibiotics with SP-BIM. Also noted: MIC SP-BIM 13 only / MIC in combination: Antibiotic / MIC antibiotic only: unit not given beside the values.
A further assay has as its system Enterococcus faecium. The description is as above. In kind it is cell-based. The note with it: Enterococcus faecium.
In assay [1] the test system is Klebsiella pneumoniae. Description: Adjuvant broth microdilution (antibiotic MIC with SP-BIM at 50 μg/mL). In kind it is cell-based. The following applies: Klebsiella pneumoniae; antibiotic alone; Table 7; read-out: MIC of antibiotic, No compound. (Broth dilution looks for growth in wells or tubes with falling amounts of substance.)
The test system of the next assay is MRSA. The description is as above. The format is cell-based, Staphylococcus aureus. The note with it: Staphylococcus aureus, antibiotic alone, Table 4, read-out: MIC of antibiotic, No compound.
In assay [2] the test system is Streptococcus pneumoniae. Put plainly: Checkerboard synergy (FICI) of antibiotics with SP-BIM. In kind it is cell-based.
Assay [3] concerns Streptococcus pneumoniae. Put plainly: Adjuvant broth microdilution (antibiotic MIC with SP-BIM at 50 μg/mL). The format is cell-based. The note with it: Streptococcus pneumoniae; Streptococcus pneumonia; antibiotic alone; Table 5; read-out: MIC of antibiotic, No compound.
The subject of a further assay is Staphylococcus aureus. Put plainly: Checkerboard synergy (FICI) of antibiotics with SP-BIM. In kind it is cell-based. The note with it: Staphylococcus aureus, Staphylococcus aureus.
For another assay, the system named is Escherichia coli. The assay is described as above.
For another assay, the system named is Bacillus cereus. The assay is described as above. The format is cell-based. The following applies: for MIC: 24 h, antibiotic alone, read-out: MIC antibiotic only.
The subject of assay [4] is Klebsiella pneumoniae. The description is as above. In kind it is cell-based.
[5] abbreviates: SP-BIM 13 in combination with the labelled antibiotic.
Where [6] appears, read: Streptococcus pneumoniae, antibiotic + SP-BIM 13.
[7] abbreviates: SP-BIM 9 in combination with the labelled antibiotic.
The mark [8] stands for this setting: antibiotic in combination with SP-BIM 9.
[9] abbreviates: antibiotic in combination with SP-BIM 13.

≈ marks a conversion by molar mass, not a printed value. Read-outs that look alike come from different tables or passages of the source.

One may read the MIC as the lowest concentration that inhibits growth of the organism. Consider `Oc1ccc2[nH]cc(C(c3ccc(Br)cc3)c3c[nH]c4ccc(O)cc34)c2c1` [SP-BIM 26, 3,3′-((4-bromophenyl)methylene)bis(1H-indol-5-ol)], for which the “MIC of vancomycin in combination with […] SP-BIM 26” value with Escherichia coli O157:H7 (E. coli O157:H7) came out at 4 µg/mL. In addition, the MIC in the assay with Escherichia coli O157:H7 (read-out: MIC (single agent)) was greater than 250 µg/mL.

Take `C[C@H]1[C@H](NC(=O)/C(=N\OC(C)(C)C(=O)O)c2csc(N)n2)C(=O)N1S(=O)(=O)O` [Aztreonam, aztreonam]: the MIC is greater than 250 µg/mL with Candida albicans (24 h, read-out: MIC antibiotic only); 8 µg/mL in the assay on Klebsiella pneumoniae [1]; greater than 250 µg/mL in the assay on MRSA; greater than 250 µg/mL in the assay on Streptococcus pneumoniae [3]; greater than 250 µg/mL with Staphylococcus aureus (24 h, antibiotic alone, SP-BIM 9 checkerboard, read-out: MIC antibiotic only); greater than 250 µg/mL in the assay on Staphylococcus aureus (24 h, antibiotic alone, SP-BIM 13 checkerboard, read-out: MIC antibiotic only). In addition, the MIC in the assay with Staphylococcus aureus (MRSA, read-out: MIC of aztreonam only, MRSA, checkerboard) was 250 µg/mL; in the assay with Bacillus cereus (SP-BIM 9 checkerboard) it was greater than 250 µg/mL; in the assay with Bacillus cereus (SP-BIM 13 checkerboard) it was 250 µg/mL. For the same molecule, the “MIC in combination: Antibiotic” value with Candida albicans (MIC of the antibiotic in combination with SP-BIM 13) stood at 250. Also, the “FIC of SP-BIM 13” value with Candida albicans (setting [5]) worked out at 1.0; with Enterococcus faecium (setting [5]), 1.0; in the assay on Streptococcus pneumoniae [2] (Streptococcus pneumoniae, SP-BIM 13 in combination with the labelled antibiotic), 0.3; in the assay with Staphylococcus aureus (setting [5]), 0.5; with Escherichia coli (setting [5]) it was 1.0; with Bacillus cereus (setting [5]), 0.5. Further, the “FIC of SP-BIM 13” value with Klebsiella pneumoniae [4] (setting [5]) is listed as 0.3. The Interpretation result is on record as “Indifferent (Indifferent: FICI>1.0-4.0)” in the assay on Candida albicans (antibiotic + SP-BIM 13); “Indifferent (Indifferent: FICI>1.0-4.0)” with Enterococcus faecium (antibiotic + SP-BIM 13); “Synergy (Synergy: FICI≤0.5)” with Streptococcus pneumoniae [2] (setting [6]); “Synergy (Synergy: FICI≤0.5)” in the assay on Staphylococcus aureus (antibiotic + SP-BIM 9); “Additive (Additive: FICI>0.5-1.0)” in the assay with Staphylococcus aureus (antibiotic + SP-BIM 13); “Synergy (Synergy: FICI≤0.5)” in the assay on Escherichia coli (antibiotic + SP-BIM 9). Also, the Interpretation result in the assay on Escherichia coli (antibiotic + SP-BIM 13) is on record as “Indifferent (Indifferent: FICI>1.0-4.0)”; in the assay with Bacillus cereus (antibiotic + SP-BIM 9), “Synergy (Synergy: FICI≤0.5)”; in the assay with Bacillus cereus (antibiotic + SP-BIM 13), “Indifferent (Indifferent: FICI>1.0-4.0)”; in the assay with Klebsiella pneumoniae [4] (antibiotic + SP-BIM 9), “Synergy (Synergy: FICI≤0.5)”; in the assay on Klebsiella pneumoniae [4] (antibiotic + SP-BIM 13), “Synergy (Synergy: FICI≤0.5)”. Also, the “Σ FIC” value was less than 2.0 with Candida albicans (antibiotic + SP-BIM 13); 2.0 in the assay with Enterococcus faecium (antibiotic + SP-BIM 13); less than 0.00 with Streptococcus pneumoniae [2] (Streptococcus pneumonia (title: Streptococcus pyogenes), antibiotic + SP-BIM 9); less than 0.3 with Streptococcus pneumoniae [2] (setting [6]); less than 0.16 in the assay with Staphylococcus aureus (antibiotic + SP-BIM 9); less than 0.6 in the assay with Staphylococcus aureus (antibiotic + SP-BIM 13). Moreover, the “Σ FIC” value is listed as less than 0.8 in the assay with Escherichia coli (antibiotic + SP-BIM 9); less than 2.0 with Escherichia coli (antibiotic + SP-BIM 13); less than 0.5 with Bacillus cereus (antibiotic + SP-BIM 9); 1.5 with Bacillus cereus (antibiotic + SP-BIM 13); less than 0.1 in the assay on Klebsiella pneumoniae [4] (antibiotic + SP-BIM 9); less than 0.3 in the assay with Klebsiella pneumoniae [4] (antibiotic + SP-BIM 13). For the same molecule, the FIC of antibiotic in the assay with Candida albicans (combination with SP-BIM 13) stood at 1.0; in the assay with Enterococcus faecium (in combination with SP-BIM 13), 1.0; in the assay on Streptococcus pneumoniae [2] (Streptococcus pneumoniae, in combination with SP-BIM 13), 0.1; in the assay on Staphylococcus aureus (in combination with SP-BIM 9), 0.03; in the assay on Staphylococcus aureus (in combination with SP-BIM 13), 0.1; in the assay with Escherichia coli (combination with SP-BIM 13) it was 1.0. Also, the FIC of antibiotic came out at 0.256 with Escherichia coli (in combination with SP-BIM 9); 0.252 in the assay with Bacillus cereus (in combination with SP-BIM 9); 1.00 in the assay on Bacillus cereus (in combination with SP-BIM 13); 0.008 in the assay on Klebsiella pneumoniae [4] (in combination with SP-BIM 9); 0.1 in the assay with Klebsiella pneumoniae [4] (in combination with SP-BIM 13). Further, the “MIC in combination, Antibiotic” value is 8 µg/mL in the assay with Streptococcus pneumoniae [2] (Streptococcus pneumoniae, antibiotic in combination with SP-BIM 13); 8.0 µg/mL in the assay with Staphylococcus aureus (setting [8]); 32 µg/mL in the assay on Staphylococcus aureus (setting [9]); 32 µg/mL in the assay with Escherichia coli (setting [8]); 63 µg/mL in the assay on Bacillus cereus (setting [8]); 250 µg/mL in the assay on Bacillus cereus (setting [9]). In addition, the “MIC in combination, Antibiotic” value in the assay with Klebsiella pneumoniae [4] (setting [8]) came out at 1 µg/mL; in the assay on Klebsiella pneumoniae [4] (setting [9]) it was 8 µg/mL. Besides, the “FIC of SP-BIM 9” value in the assay on Staphylococcus aureus (setting [7]) amounted to 0.12; in the assay on Escherichia coli (setting [7]), 0.5; with Bacillus cereus (setting [7]), 0.252; in the assay on Klebsiella pneumoniae [4] (setting [7]), 0.064. Moreover, the “MIC in combination, SP-BIM 9” value in the assay with Bacillus cereus (SP-BIM 9 concentration in combination with the labelled antibiotic) turned out to be 63 µg/mL.

Turning to `Oc1ccc2[nH]cc(C(c3cccc(Br)c3)c3c[nH]c4ccc(O)cc34)c2c1` [SP-BIM 28, 3,3′-((3-bromophenyl)methylene)bis(1H-indol-5-ol)], the MIC with Escherichia coli O157:H7 (read-out: MIC SP-BIM 28) worked out at 250 µg/mL (≈ 577 µM).

Take `Oc1ccc2[nH]cc(C(c3cc(O)c(O)c(O)c3)c3c[nH]c4ccc(O)cc34)c2c1` [SP-BIM 27, 5-(bis(5-hydroxy-1H-indol-3-yl)methyl)benzene-1,2,3-triol]: the MIC in the assay with Escherichia coli O157:H7 (read-out: MIC of SP-BIM 27) was greater than 250 µg/mL.
